Results from ChEMBL document CHEMBL1201862, “PubChem BioAssay data set” (2004).
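How tested: cells in 96-well plates exposed to compound for 48 hours at five concentrations. At the GI50, growth is halved.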 Activity calls are given as the source filed them. Rule as the data show it: active = GI50 up to about 1.1 µM and inactive = higher. Peptide text beside a SMILES is read from it. * marks the point of attachment. OSu = O=C1CCC(=O)N1O*

Experiments:
Assay in all cases: NCI-60 cell line screen, 48 h
ACHN = test system: ACHN
CAKI-1 = test system: CAKI-1
EKVX = test system: EKVX
HCT-15 = test system: HCT-15
HL-60 = test system: HL-60
HT-29 = test system: HT-29
Malme-3M = test system: Malme-3M
NCI-H23 = test system: NCI-H23
NCI-H460 = test system: NCI-H460
OVCAR-3 = test system: OVCAR-3
SF-295 = test system: SF-295
SK-MEL-28 = test system: SK-MEL-28
SK-MEL-5 = test system: SK-MEL-5
SNB-19 = test system: SNB-19
SR = test system: SR
UO-31 = test system: UO-31
CCRF-CEM = test system: CCRF-CEM
HOP-92 = test system: HOP-92
SF-539 = test system: SF-539

Row | SMILES | GI50 (ACHN) | GI50 (CAKI-1) | GI50 (EKVX) | GI50 (HCT-15) | GI50 (HL-60) | GI50 (HT-29) | GI50 (Malme-3M) | GI50 (NCI-H23) | GI50 (NCI-H460) | GI50 (OVCAR-3) | GI50 (SF-295) | GI50 (SK-MEL-28) | GI50 (SK-MEL-5) | GI50 (SNB-19) | GI50 (SR) | GI50 (UO-31) | GI50 (CCRF-CEM) | GI50 (HOP-92) | GI50 (SF-539)
1 | O=C1C(Cl)C(c2cccc(O)c2)N1n1cnc2ccccc2c1=O (stereo not given) | > 100 µM (inactive) | 76 µM (inactive) | 64.3 µM (inactive) | > 100 µM | 64.7 µM (inactive) | > 100 µM (inactive) | > 100 µM (inactive) | > 100 µM (inactive) | > 100 µM (inactive) | > 100 µM (inactive) | > 100 µM (inactive) | > 100 µM (inactive) | > 100 µM (inactive) | 49.5 µM (inactive) | 26 µM (inactive) | 15 µM (inactive) | – | – | –
2 | Cc1cccc(-c2nnc3s/c(=C\c4ccc(N(C)C)cc4)c(=O)n23)c1 | > 100 µM (inactive) | > 100 µM (inactive) | > 100 µM (inactive) | – | > 100 µM (inactive) | – | > 100 µM (inactive) | > 100 µM (inactive) | > 100 µM (inactive) | > 100 µM (inactive) | > 100 µM (inactive) | > 100 µM (inactive) | > 100 µM (inactive) | > 100 µM (inactive) | – | > 100 µM (inactive) | > 100 µM (inactive) | > 100 µM (inactive) | > 100 µM (inactive)
3 | CC1=Nc2ccccc2C1C(Cc1ccccc1N)c1c(C)[nH]c2ccccc12 (stereo not given) | 15.2 µM (inactive) | – | 20.5 µM (inactive) | 16.4 µM | 14 µM (inactive) | 17.8 µM (inactive) | 17.3 µM (inactive) | 18.2 µM (inactive) | 17.2 µM (inactive) | 15.1 µM (inactive) | 12.6 µM (inactive) | 18.8 µM (inactive) | 14.6 µM (inactive) | 22.7 µM (inactive) | 21.9 µM (inactive) | 14.7 µM (inactive) | 17.7 µM (inactive) | 12.3 µM (inactive) | 17.6 µM (inactive)
4 | CCCC(O)c1ccc2[nH]c3c(C)cc([N+](=O)[O-])c(C)c3c2c1 (stereo not given) | > 100 µM (inactive) | > 100 µM (inactive) | > 100 µM (inactive) | > 100 µM | > 100 µM (inactive) | 68.1 µM (inactive) | > 100 µM (inactive) | > 100 µM (inactive) | > 100 µM (inactive) | 83.2 µM (inactive) | 95.1 µM (inactive) | > 100 µM (inactive) | > 100 µM (inactive) | > 100 µM (inactive) | > 100 µM (inactive) | > 100 µM (inactive) | > 100 µM (inactive) | – | > 100 µM (inactive)
5 | COC(=O)C1=C(C(=O)OC)C(C(=O)OC)C(C(=O)OC)=C1C(=O)OC | > 100 µM (inactive) | > 100 µM (inactive) | > 100 µM (inactive) | > 100 µM | > 100 µM (inactive) | > 100 µM (inactive) | > 100 µM (inactive) | > 100 µM (inactive) | > 100 µM (inactive) | > 100 µM (inactive) | > 100 µM (inactive) | > 100 µM (inactive) | > 100 µM (inactive) | > 100 µM (inactive) | – | > 100 µM (inactive) | > 100 µM (inactive) | > 100 µM (inactive) | > 100 µM (inactive)
6 | NCCCCC(NC(=O)C(N)Cc1ccc(O)cc1)C(=O)NC(CCCCN)C(=O)NC(CCCCN)C(=O)ON1C(=O)CCC1=O (stereo not given) (H-YKKK-OSu; configuration not given here) | > 100 µM (inactive) | – | > 100 µM (inactive) | > 100 µM | > 100 µM (inactive) | > 100 µM (inactive) | > 100 µM (inactive) | > 100 µM (inactive) | > 100 µM (inactive) | – | – | > 100 µM (inactive) | > 100 µM (inactive) | > 100 µM (inactive) | > 100 µM (inactive) | > 100 µM (inactive) | – | > 100 µM (inactive) | –
